Patent US8952192B2, “Phosphorylated and branched dihydroxy-pentane-dione (DPD) analogs as quorum sensing inhibitors in bacteria” (University of Maryland, College Park, priority 2011, dated 2015)

What was measured:
[1] = system: pre-formed E. coli biofilms (K-12 MG1655); assay: Effects on pre-formed E. coli biofilms (microfluidic flow cell, COMSTAT, optical density); assay type: cell-based
Procedure: The E. coli biofilms were formed using the strain K-12 MG1655 ATCC(47076). P. aeruginosa biofilms were formed using wild type strain PAO1. For both strains, overnight cultures were diluted to an OD600 of 0.25, introduced into the microfluidic channel, and incubated with no flow at 37° C. for 2 h. LB (Luria Bertani) growth medium was then continuously flowed into the device at a rate of 10 μL/hr. As needed, this medium was supplemented with various concentrations of analog or antibiotic at specified times. In studies of biofilm inhibition, after 2 hours of cell incubation, the analog diluted in LB medium is flown into the microfluidic channel for 48 hours at 10 μL/hr. In studies of effects on pre-formed biofilms, LB is introduced over the cells at 10 μL/hr for a period of 36 to 48 hours to yield stable biofilms. Then, the analog or analog-antibiotic combination was introduced for an additional 36 to 48 hours.
Biofilms were stained in situ for microscopy. They were first treated with a Live/Dead bacterial labeling kit (Invitrogen #L7012) in which two labeling components were mixed in a 1:1 ratio to a final volume of 10 μL. The dye was introduced into the channel at 10 μL/hr, the same flow rate as during biofilm growth. This treatment was then followed by 10 μL/hr of a 100 μg/mL calcofluor (Fluorescence Brightener 28, Sigma #F3543) solution for labeling polysaccharides contained in the biofilm matrix. The dyes are fixed by flowing in 3% paraformaldehyde at the same flow rate.
Labeled samples are imaged using a confocal microscope (Zeiss LSM710). For unpatterned coverslips, Z-stacks were obtained at 7 points in each microfluidic channel, each stack was comprised of 150 slices. For patterned coverslips used while measuring the optical density of the biofilms, two stacks were obtained in each channel (i.e. one at each pinhole). The image stacks were analyzed using COMSTAT, which provides morphological characteristics. Average biofilm thickness and biomass were averaged over the image stacks obtained at each of these 7 data points in the microfluidic channel. Additionally, surface reconstructions of the biofilms were created using Imaris (Bitplane) to aid in visualization of the resulting structures.
The data corresponding to the change in optical density of the biofilms were obtained from the photodiodes using the standard methodologies. Data for each channel (the average of the response of the two photodiodes) was normalized with respect to the optical density at 48 hours; this method reflects that as of 48 hours, the biofilms have been grown under identical conditions although their optical density values may not be identical. Additionally, since the optical density data itself fluctuates as the biofilm grows, the data for each curve was fitted using a Churchill model (Churchill et al, 1972), represented by log N=[f1^−1+f2^−1]^−1 (1)

[2] = system: lsr expression in E. coli (lsr-lacZ reporter strains); assay: QS response (lsr expression): AI-2 dependent β-galactosidase production, Miller assay; assay type: cell-based, Escherichia coli; settings: E. coli ZK126 pLW11 LW8 (luxS+, lsrR−), 20 μM analog
[3] = 100 μM isobutyl-DPD combined with gentamicin 5 μg/ml

SMILES | average biofilm thickness ([1]; 40 μM isobutyl-DPD combined with gentamicin 5 μg/ml) [μm] | average biofilm thickness [1, 3] [μm] | effect on biofilm biomass, in words [1, 3] | reduction in biofilm thickness [1, 3] | course of biofilm optical density after 48 h, in words ([1]; isobutyl-DPD combined with gentamicin, continuous optical density measurement) | difference in lsr expression versus control in lsrR null mutant [2]
CC(C)CC(=O)C(=O)[C@@H](O)CO [Isobutyl-DPD, isobutyl-DPD] | 6 | 2 | nearly complete removal of biomass | more than 80% | reversed biofilm growth | –
O=C(C(=O)C(O)CO)c1ccccc1 (stereo not drawn) [Phenyl-DPD, Phenyl DPD] | – | – | – | – | – | exception
